Measurements as given in patent publication US20250360125A1, “METHODS AND COMPOSITIONS FOR TREATING HUNTINGTON'S DISEASE AND ITS SYMPTOMS” (Corcept Therapeutics Incorporated, priority 2023, published 2025).

Tests used:
[1] = tested on: R6/2 mouse model; assay: Forelimb grip strength in R6/2 mice; type: in vivo; conditions: 30 mg/kg s.c. daily for 5 weeks
Method: (§1) HD and wild-type (WT) R6/2 mice were purchased from JAX (The Jackson Laboratory, ME, USA) and arrived in the animal facility at 4-weeks of age. The mice were housed under normal conditions (room temperature, 12 hours light/dark cycle) with food and water ab libitum. The mice were housed 3-4 per cage, separated by sex, but different genotypes were housed together to improve the survival of the HD mice^11. Genotyping on tail samples that were collected post-mortem was performed by Laragen (CA, USA) to confirm that all HD mice had between 120-130 CAG repeats.
Animal studies: experimental procedures From 6 weeks of age onwards, mice received a daily subcutaneous (s.c.) injection either with 30 mg/kg of CORT113176 or vehicle (Veh; 10% ethanol and castor oil in experiment 1 or sesame oil in experiment 2) for five consecutive weeks. In experiment 1, male and female mice were assigned into one of the following groups: 1) WT+Veh (n=5 per sex), 2) WT+CORT113176 (n=5), 3) HD+Veh (n=5) or 4) HD+CORT113176 (n=5). […] Bodyweight was measured weekly and motor tests were performed at 1 PM to monitor the disease progression (as described below). […]
Grip strength: Grip strength measurements were performed weekly to quantify muscle strength. […] The mouse was then gently pulled away until grip was lost, and the force that was required to do this was monitored. […]

[2] = tested on: R6/2 mouse model; assay: Hindlimb clasping test in R6/2 mice; type: in vivo; conditions: 30 mg/kg s.c. daily for 5 weeks
Method: as §1
Animal studies: experimental procedures From 6 weeks of age onwards, mice received a daily subcutaneous (s.c.) injection either with 30 mg/kg of CORT113176 or vehicle (Veh; 10% ethanol and castor oil in experiment 1 or sesame oil in experiment 2) for five consecutive weeks. In experiment 1, male and female mice were assigned into one of the following groups: 1) WT+Veh (n=5 per sex), 2) WT+CORT113176 (n=5), 3) HD+Veh (n=5) or 4) HD+CORT113176 (n=5). In the final analysis there was an unequal group distribution for the male mice due to a mislabeled genotype and a mouse reaching an earlier endpoint resulting in n=6 in the WT+Veh group and n=3 in the HD+Veh group. In experiment 2, male mice were assigned into the following groups: 1) WT+Veh (n=10), 2) HD+Veh (n=10, ultimately n=8 due to a non-responder that met outlier criteria and a mouse reaching an earlier timepoint) and 3) HD+CORT113176 (n=10). Bodyweight was measured weekly and motor tests were performed at 1 PM to monitor the disease progression (as described below). On day 19 and day 34, blood samples were taken in the morning to evaluate corticosterone levels. On day 34, the animals were sacrificed using CO2 inhalation, blood was collected via cardiac puncture and the animals were perfused with cold PBS. Afterwards, several tissues were harvested and snap-frozen for further analysis. Brains were collected and stored for 24 hours at 4% PFA for IHC (further described below). […]

[3] = tested on: R6/2 mouse model; assay: Observed epileptic seizures in R6/2 mice (Racine scale); type: in vivo
Method: as §1
Animal studies: experimental procedures From 6 weeks of age onwards, mice received a daily subcutaneous (s.c.) injection either with 30 mg/kg of CORT113176 or vehicle (Veh; 10% ethanol and castor oil in experiment 1 or sesame oil in experiment 2) for five consecutive weeks. In experiment 1, male and female mice were assigned into one of the following groups: 1) WT+Veh (n=5 per sex), 2) WT+CORT113176 (n=5), 3) HD+Veh (n=5) or 4) HD+CORT113176 (n=5). In the final analysis there was an unequal group distribution for the male mice due to a mislabeled genotype and a mouse reaching an earlier endpoint resulting in n=6 in the WT+Veh group and n=3 in the HD+Veh group. In experiment 2, male mice were assigned into the following groups: 1) WT+Veh (n=10), 2) HD+Veh (n=10, ultimately n=8 due to a non-responder that met outlier criteria and a mouse reaching an earlier timepoint) and 3) HD+CORT113176 (n=10). Bodyweight was measured weekly and motor tests were performed at 1 PM to monitor the disease progression (as described below). On day 19 and day 34, blood samples were taken in the morning to evaluate corticosterone levels. On day 34, the animals were sacrificed using CO2 inhalation, blood was collected via cardiac puncture and the animals were perfused with cold PBS. Afterwards, several tissues were harvested and snap-frozen for further analysis. Brains were collected and stored for 24 hours at 4% PFA for IHC (further described below).
These seizures were not anticipated, but every case was documented throughout the experiment and scored using the Racine scale^15.

[4] = tested on: GFAP; assay: GFAP immunohistochemistry (astrocyte marker) in striatum and hippocampus of R6/2 mice; type: in vivo, mouse; conditions: experiment 1, male HD R6/2 mice, 30 mg/kg s.c. daily for 5 weeks
Method: (§2) Animal studies: experimental procedures From 6 weeks of age onwards, mice received a daily subcutaneous (s.c.) injection either with 30 mg/kg of CORT113176 or vehicle (Veh; 10% ethanol and castor oil in experiment 1 or sesame oil in experiment 2) for five consecutive weeks. In experiment 1, male and female mice were assigned into one of the following groups: 1) WT+Veh (n=5 per sex), 2) WT+CORT113176 (n=5), 3) HD+Veh (n=5) or 4) HD+CORT113176 (n=5). In the final analysis there was an unequal group distribution for the male mice due to a mislabeled genotype and a mouse reaching an earlier endpoint resulting in n=6 in the WT+Veh group and n=3 in the HD+Veh group. […] Bodyweight was measured weekly and motor tests were performed at 1 PM to monitor the disease progression (as described below). […] The slides of DARP32, GFAP and Iba1 were scanned with the Axio Slide Scanner (Zeiss, Axio Slide Scan.Z1) and the mHtt slides were analyzed using the confocal microscope (Leica, White Light Laser Confocal Microscope TCS SP8 X). All obtained images were analyzed using ImageJ (version 1.52p). DARP32, GFAP and Iba1 the mean intensity was measured in the striatum and hippocampus. The total number of aggregates in a specific region of interest (ROI), the total area in the ROI and the average size of the aggregates were measured.

[5] = tested on: Iba1; assay: Iba1 immunohistochemistry (microglia marker) in hippocampus of R6/2 mice; type: in vivo, mouse; conditions: experiment 1, male HD R6/2 mice, 30 mg/kg s.c. daily for 5 weeks
Method: as §2

[6] = tested on: mHtt aggregates; assay: mHtt aggregate immunohistochemistry in striatum and hippocampal CA1 of R6/2 mice; type: in vivo, mouse; conditions: experiment 2, male HD R6/2 mice, vs vehicle-treated HD mice
Method: Animal studies: experimental procedures From 6 weeks of age onwards, mice received a daily subcutaneous (s.c.) injection either with 30 mg/kg of CORT113176 or vehicle (Veh; 10% ethanol and castor oil in experiment 1 or sesame oil in experiment 2) for five consecutive weeks. In experiment 1, male and female mice were assigned into one of the following groups: 1) WT+Veh (n=5 per sex), 2) WT+CORT113176 (n=5), 3) HD+Veh (n=5) or 4) HD+CORT113176 (n=5). In the final analysis there was an unequal group distribution for the male mice due to a mislabeled genotype and a mouse reaching an earlier endpoint resulting in n=6 in the WT+Veh group and n=3 in the HD+Veh group. In experiment 2, male mice were assigned into the following groups: 1) WT+Veh (n=10), 2) HD+Veh (n=10, ultimately n=8 due to a non-responder that met outlier criteria and a mouse reaching an earlier timepoint) and 3) HD+CORT113176 (n=10). Bodyweight was measured weekly and motor tests were performed at 1 PM to monitor the disease progression (as described below). On day 19 and day 34, blood samples were taken in the morning to evaluate corticosterone levels. On day 34, the animals were sacrificed using CO2 inhalation, blood was collected via cardiac puncture and the animals were perfused with cold PBS. Afterwards, several tissues were harvested and snap-frozen for further analysis. Brains were collected and stored for 24 hours at 4% PFA for IHC (further described below). Immunohistochemistry Brains were isolated and the left hemisphere was fixated in 4% PFA (Sigma-Aldrich, 8187085000) for 24 hours. Afterwards the brains were transferred to a 30% sucrose solution for 24-48 hours and stored at −80° C. until further processing. Cryosections of 10 μM were collected (CryoStar NX70) on slides (Avantor, VWR® Microscope Slides, 631-1166) and stored at −20° C. until staining. The slides were incubated for 25 minutes with 0.1% Triton X-100 (Sigma-Aldrich), washed with 0.1% PBS/Tween (Tween®20, Sigma-Aldrich). The background signal was blocked with 5% PBSA for 30 minutes before the incubation with the primary antibody DARP32, (1:500, abcam, EP720Y, ab40801), GFAP (1:500, Agilent DAKO, Z0334), Iba1, (1:500, Fujifilm Wako, 019-19741) or mHtt, 1:500 (1:500, abcam, EPR5526, ab209668) overnight at 4° C. The following day slides were washed with 0.1% PBS/Tween before incubation with the secondary antibody goat anti-rabbit Alexa Fluor 488 (1:250, Invitrogen, A-110088) for 30 minutes. After a final wash with 0.1% PBS/Tween, ProLong gold with DAPI (Invitrogen, P36931) was added with a coverslip (Thermo-Fisher, Menzel-Glaser, 0980) and the slides were dried at room temperature. The slides of DARP32, GFAP and Iba1 were scanned with the Axio Slide Scanner (Zeiss, Axio Slide Scan.Z1) and the mHtt slides were analyzed using the confocal microscope (Leica, White Light Laser Confocal Microscope TCS SP8 X). All obtained images were analyzed using ImageJ (version 1.52p). DARP32, GFAP and Iba1 the mean intensity was measured in the striatum and hippocampus. The total number of aggregates in a specific region of interest (ROI), the total area in the ROI and the average size of the aggregates were measured.

[7] = tested on: R6/2 mouse model; assay: Gait abnormalities in R6/2 mice; type: in vivo; conditions: male R6/2 mice
[8] = tested on: other steroid receptors; conditions: no test described; cited from earlier work
[9] = experiment 1, male HD R6/2 mice, vs vehicle-treated HD mice
[10] = experiment 2 (larger cohort), male HD R6/2 mice, vs vehicle

Compound | Forelimb grip strength over time [1, 9] | Grip strength [1, 10] | Hindlimb clasping score ([2]; experiment 1, female HD R6/2 mice) | Hindlimb clasping score [2, 9] | Clasping score [2, 10] | Total number of epileptic seizures ([3]; experiment 1, female HD R6/2 mice, 30 mg/kg s.c. daily for 5 weeks) | Total number of epileptic seizures ([3]; experiment 1, male HD R6/2 mice, 30 mg/kg s.c. daily for 5 weeks, vs vehicle-treated HD mice) | Time of occurrence of epileptic seizures ([3]; experiment 1, treated HD R6/2 mice, 5-week study) | Number of epileptic seizures ([3]; experiment 2 (larger cohort), male HD R6/2 mice, 30 mg/kg s.c. daily for 5 weeks) | GFAP immunoreactivity in striatum [4] | GFAP staining intensity in hippocampus [4] | Iba1 intensity in hippocampus [5] | Number of mHtt aggregates in striatum [6] | Total mHtt aggregate area in CA1 region of hippocampus [6] | Total number of mHtt aggregates in CA1 region of hippocampus [6] | mHtt aggregate size in CA1 region of hippocampus [6] | mHtt aggregate size in striatum [6] | Gait abnormalities [7] | Cross-reactivity with other steroid receptors (selectivity for GR) [8]
O=C(c1ccccn1)[C@]12Cc3cnn(-c4ccc(F)cc4)c3C=C1CCN(S(=O)(=O)c1ccc(C(F)(F)F)cc1)C2 [CORT113176] | attenuated this decrease of muscle function | improved grip strength | at later timepoints the treatment did attenuate the clasping score | reduced clasping score | reduced clasping score | none were observed | occurred slightly more frequently in the vehicle-treated HD mice | occurred mostly near the end of the five weeks (day 32) | Only one epileptic seizure was observed | normalized GFAP levels in male | tended to normalize this HD effect | tended to be higher | significantly decreased this number of mHtt aggregates | smaller total aggregate area | significantly fewer aggregates | smaller aggregates | of a similar size in vehicle- and CORT113176-treated HD groups | significantly delayed | lacks significant cross-reactivity with other steroid receptors
CC#C[C@]1(O)CC[C@H]2[C@@H]3CCC4=CC(=O)CCC4=C3[C@@H](c3ccc(N(C)C)cc3)C[C@@]21C [mifepristone, reference compound] |  |  |  |  |  |  |  |  |  |  |  |  |  |  |  |  |  |  | is not specific for GR
CC(C)n1ncc(S(=O)(=O)N2CC[C@H]3Cc4c(cnn4-c4ccc(F)cc4)C[C@]3(C(=O)c3cscn3)C2)n1 [zavacorilant, ((4aR,8aS)-1-(4-fluorophenyl)-6-((2-isopropyl-2H-1,2,3-triazol-4-yl)sulfonyl)-4,4a,5,6,7,8,8a,9-octahydro-1H-pyrazolo[3,4-g]isoquinolin-4a-yl)(thiazol-4-yl)methanone] |  |  |  |  |  |  |  |  |  |  |  |  |  |  |  |  |  |  | lacks significant cross-reactivity with other steroid receptors
